# Results taken from patent US9586951B2 (FUJIFILM Corporation, priority 2013, dated 2017).
# Molecular target: T1, ATM (Homo sapiens, UniProt Q13315)
# T1 construct: detecting phosphorylation of Chk2 in a human non-small cell lung cancer cell line NCI-H460 (ATCC company); host or cells: NCI-H460 human non-small cell lung cancer cells
# Assay: ATM inhibition test (phosphorylation of Chk2 generated by ionizing radiation, AlphaScreen SureFire)
# Assay type: cell-based
# Settings: phosphorylated Chk2 in NCI-H460 cells, ionizing radiation 8Gy, 1 hour after test compound treatment; read-out: ATM inhibitory activity
# How it was run: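 Phosphorylated Chk2 read by AlphaScreen SureFire in human non-small cell lung cancer NCI-H460 cells, 1 hour after 8Gy ionizing radiation at 37° C. Compound added 1 hour before irradiation. Percent inhibition normalised between irradiated and non-irradiated drug-untreated signals.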
# T1 sequence (Q13315 whole entry): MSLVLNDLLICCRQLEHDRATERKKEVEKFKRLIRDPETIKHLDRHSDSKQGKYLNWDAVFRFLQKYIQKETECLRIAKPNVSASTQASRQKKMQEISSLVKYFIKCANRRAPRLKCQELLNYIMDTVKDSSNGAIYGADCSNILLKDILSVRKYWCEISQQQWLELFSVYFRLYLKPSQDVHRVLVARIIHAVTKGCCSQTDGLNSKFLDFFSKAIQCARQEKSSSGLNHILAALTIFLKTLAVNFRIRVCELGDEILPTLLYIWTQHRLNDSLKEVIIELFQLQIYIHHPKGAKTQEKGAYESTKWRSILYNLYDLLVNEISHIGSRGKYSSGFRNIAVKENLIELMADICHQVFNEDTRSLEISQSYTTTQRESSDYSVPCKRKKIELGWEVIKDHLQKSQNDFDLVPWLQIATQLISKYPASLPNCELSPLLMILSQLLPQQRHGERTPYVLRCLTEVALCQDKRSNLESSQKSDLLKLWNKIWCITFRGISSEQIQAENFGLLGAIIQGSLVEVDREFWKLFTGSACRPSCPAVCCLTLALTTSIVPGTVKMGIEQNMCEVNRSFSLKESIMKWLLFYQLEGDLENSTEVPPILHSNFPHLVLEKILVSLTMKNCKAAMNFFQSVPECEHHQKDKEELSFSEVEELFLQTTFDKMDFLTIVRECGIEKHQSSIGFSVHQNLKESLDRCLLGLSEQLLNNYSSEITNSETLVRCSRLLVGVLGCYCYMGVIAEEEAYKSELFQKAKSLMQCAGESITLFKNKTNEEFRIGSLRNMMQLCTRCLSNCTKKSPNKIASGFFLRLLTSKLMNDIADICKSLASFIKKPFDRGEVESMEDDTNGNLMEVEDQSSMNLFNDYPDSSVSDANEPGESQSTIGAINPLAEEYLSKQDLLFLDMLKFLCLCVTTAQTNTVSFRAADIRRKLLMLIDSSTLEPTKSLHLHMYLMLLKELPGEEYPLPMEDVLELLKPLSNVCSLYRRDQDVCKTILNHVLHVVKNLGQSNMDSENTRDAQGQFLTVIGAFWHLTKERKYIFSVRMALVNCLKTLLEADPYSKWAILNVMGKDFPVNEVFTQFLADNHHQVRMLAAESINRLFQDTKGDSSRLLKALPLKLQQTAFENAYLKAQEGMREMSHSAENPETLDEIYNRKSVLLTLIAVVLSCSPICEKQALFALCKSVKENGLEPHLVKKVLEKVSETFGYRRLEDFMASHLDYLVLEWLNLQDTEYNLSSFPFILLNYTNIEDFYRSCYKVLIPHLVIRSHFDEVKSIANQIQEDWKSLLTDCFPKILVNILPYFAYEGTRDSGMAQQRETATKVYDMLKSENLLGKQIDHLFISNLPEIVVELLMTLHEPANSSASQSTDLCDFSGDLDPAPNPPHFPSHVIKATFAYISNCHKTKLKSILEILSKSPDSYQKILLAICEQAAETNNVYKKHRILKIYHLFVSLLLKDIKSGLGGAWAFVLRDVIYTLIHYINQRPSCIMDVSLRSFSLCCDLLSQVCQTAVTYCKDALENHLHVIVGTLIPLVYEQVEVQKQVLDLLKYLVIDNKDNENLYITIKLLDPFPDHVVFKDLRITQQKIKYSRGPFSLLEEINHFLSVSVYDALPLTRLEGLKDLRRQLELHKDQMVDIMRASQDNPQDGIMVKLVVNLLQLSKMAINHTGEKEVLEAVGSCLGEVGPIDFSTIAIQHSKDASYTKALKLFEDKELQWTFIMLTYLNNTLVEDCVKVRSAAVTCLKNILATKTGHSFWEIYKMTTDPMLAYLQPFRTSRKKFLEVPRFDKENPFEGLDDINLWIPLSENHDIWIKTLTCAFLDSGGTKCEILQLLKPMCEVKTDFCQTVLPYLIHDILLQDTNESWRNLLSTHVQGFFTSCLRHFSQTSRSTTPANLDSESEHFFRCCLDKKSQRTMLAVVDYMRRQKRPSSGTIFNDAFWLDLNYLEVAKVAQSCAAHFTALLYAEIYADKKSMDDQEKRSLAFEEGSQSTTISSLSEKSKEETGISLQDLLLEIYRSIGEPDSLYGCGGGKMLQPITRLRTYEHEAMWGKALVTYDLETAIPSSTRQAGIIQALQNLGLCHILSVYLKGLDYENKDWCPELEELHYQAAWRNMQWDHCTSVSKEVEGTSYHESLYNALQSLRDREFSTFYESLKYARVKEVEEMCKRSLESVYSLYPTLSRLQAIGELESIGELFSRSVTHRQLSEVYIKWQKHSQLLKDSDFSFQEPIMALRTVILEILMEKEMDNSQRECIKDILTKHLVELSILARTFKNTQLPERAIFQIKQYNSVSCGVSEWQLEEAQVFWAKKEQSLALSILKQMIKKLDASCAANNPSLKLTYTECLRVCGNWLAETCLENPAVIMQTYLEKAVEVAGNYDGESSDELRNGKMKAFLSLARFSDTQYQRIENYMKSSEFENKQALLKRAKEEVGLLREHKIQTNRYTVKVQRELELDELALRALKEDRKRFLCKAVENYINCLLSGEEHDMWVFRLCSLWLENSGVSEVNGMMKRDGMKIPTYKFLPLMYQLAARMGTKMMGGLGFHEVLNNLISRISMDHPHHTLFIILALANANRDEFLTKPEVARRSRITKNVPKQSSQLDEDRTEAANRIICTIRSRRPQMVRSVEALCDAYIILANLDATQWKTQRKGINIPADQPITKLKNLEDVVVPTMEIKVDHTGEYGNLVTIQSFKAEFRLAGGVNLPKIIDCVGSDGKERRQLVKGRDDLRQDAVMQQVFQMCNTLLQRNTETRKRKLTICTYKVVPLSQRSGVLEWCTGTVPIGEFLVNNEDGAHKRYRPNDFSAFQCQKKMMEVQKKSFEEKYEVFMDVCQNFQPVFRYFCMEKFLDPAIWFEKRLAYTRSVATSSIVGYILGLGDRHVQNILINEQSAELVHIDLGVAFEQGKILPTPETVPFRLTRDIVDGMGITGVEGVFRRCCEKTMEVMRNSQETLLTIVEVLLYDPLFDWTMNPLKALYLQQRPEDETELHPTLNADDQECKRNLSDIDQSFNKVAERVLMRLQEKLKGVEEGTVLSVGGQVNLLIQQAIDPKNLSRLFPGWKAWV
row,Structure (SMILES),IC50 [nM]
1,"O=c1cc(N2CCOCC2)cc(-c2cccc3c2Sc2ccc(NC4CCNCC4)cc2S3)[nH]1 [Example 1-24-15, 4-Morpholino-6-(7-(piperidin-4-ylamino)thianthren-1-yl)pyridin-2(1H)-one]",< 100
2,"O=c1cc(N2CCOCC2)cc(-c2cccc3c2Sc2ccc(NC4CCCN(C5CCOC5)C4)cc2S3)[nH]1 (stereo not shown) [Example 1-24-8, 4-Morpholino-6-(7-((1-(tetrahydrofuran-3-yl)piperidin-3-yl)amino)thianthren-1-yl)pyridin-2 (1H)-one]",100 to 500
3,"Cc1ccc(C(Nc2ccc3c(c2)Sc2cccc(-c4cc(N5CCOCC5)cc(=O)[nH]4)c2S3)[C@@H]2CCCN2C)nc1 (single isomer, unassigned) [Example 1-56-2]",100 to 500
4,"O=c1cc(N2CCOCC2)cc(-c2cccc3c2Sc2ccc(NCCN4CCC(F)(F)CC4)cc2S3)[nH]1 [Example 1-10-1, 6-(7-((2-(4,4-Difluoropiperidin-1-yl)ethyl)amino)thianthren-1-yl)-4-morpholinopyridin-2(1H)-one]",100 to 500
5,"Cc1ccc(C(Nc2ccc3c(c2)Sc2cccc(-c4cc(N5CCOCC5)cc(=O)[nH]4)c2S3)C2CCN(C)C2)nc1 (single isomer, unassigned) [Example 10-3-5]",< 100
6,"CCCC(Nc1ccc2c(c1)Sc1cccc(-c3cc(N4CCOCC4)cc(=O)[nH]3)c1S2)[C@H](C)N (stereo partly drawn) [Example 1-20-2, 6-(7-(((2S)-2-Aminohexan-3-yl)amino)thianthren-1-yl)-4-morpholino pyridin-2(1H)-one]",100 to 500
7,"O=C(CNc1ccc2c(c1)Sc1cccc(-c3cc(N4CCOCC4)cc(=O)[nH]3)c1S2)N1CCCC1 [Example 1-18-1, 4-morpholino-6-(7-((2-oxo-2-(pyrrolidin-1-yl)ethyl)amino)thianthren-1-yl)pyridin-2(1H)-one]",100 to 500
8,"Cc1ccc(C(Nc2ccc3c(c2)Sc2cccc(-c4cc(N5CCOCC5)cc(=O)[nH]4)c2S3)C2CN(CCO)CCO2)nc1 (racemic) [Example 1-57-1, 6-(7-(((4-(2-hydroxyethyl)morpholin-2-yl)(5-methylpyridin-2-yl)methyl)amino)thianthren-1-yl)-4-morpholinopyridin-2(1H)-one]",< 100
9,"Cc1cnc(C(CCN2CCC2)Nc2ccc3c(c2)Sc2cccc(-c4cc(N5CCOCC5)cc(=O)[nH]4)c2S3)cn1 (single isomer, unassigned) [Example 1-51-11, 6-(7-((3-(Azetidin-1-yl)-1-(5-methylpyrazin-2-yl)propyl)amino)thianthren-1-yl)-4-morpholino pyridin-2(1H)-one]",< 100
10,"O=c1cc(N2CCOCC2)cc(-c2cccc3c2Oc2ccc([N+](=O)[O-])cc2S3)[nH]1 [Example 4-1, 4-Morpholino-6-(8-nitrophenoxathiin-4-yl)pyridin-2(1H)-one]",500 to 2000
11,"O=c1cc(N2CCOCC2)cc(-c2cccc3c2Sc2ccc(NC(CN4CCOCC4)CN4CCOCC4)cc2S3)[nH]1 [Example 1-51-12, 6-(7-((1,3-Dimorpholinopropan-2-yl)amino)thianthren-1-yl)-4-morpholino pyridin-2 (1H)-one]",< 100
12,"COc1nccc(C(C)Nc2ccc3c(c2)Sc2cccc(-c4cc(N5CCOCC5)cc(=O)[nH]4)c2S3)n1 (stereo not shown) [Example 1-12-88, 6-(7-((1-(2-Methoxypyrimidin-4-yl)ethyl)amino)thianthren-1-yl)-4-morpholino pyridin-2(1H)-one]",100 to 500
13,"Cc1ccnc(C(CO)Nc2ccc3c(c2)Sc2cccc(-c4cc(N5CCOCC5)cc(=O)[nH]4)c2S3)c1 (single isomer, unassigned) [Example 1-12-138-1, 6-(7-((2-hydroxy-1-(4-methylpyridin-2-yl)ethyl)amino)thianthren-1-yl)-4-morpholinopyridin-2(1H)-one]",100 to 500

# Now from value to molecule:
row,IC50 [nM],Structure (SMILES)
1,100 to 500,"Cc1cncc(C(CO)Nc2ccc3c(c2)Sc2cccc(-c4cc(N5CCOCC5)cc(=O)[nH]4)c2S3)c1 (stereo not shown) [Example 1-12-66, 6-(7-((2-Hydroxy-1-(5-methylpyridin-3-yl)ethyl)amino)thianthren-1-yl)-4-morpholino pyridin-2(1H)-one]"
2,500 to 2000,"O=c1cc(N2CCOCC2)cc(-c2cccc3c2Oc2ccc(NC4CCN(Cc5ccccn5)CC4)cc2C3)[nH]1 [Example 2-28-1, 4-Morpholino-6-(7-((1-(pyridin-2-ylmethyl)piperidin-4-yl)amino)-9H-xanthen-4-yl)pyridin-2 (1H)-one]"
3,100 to 500,"Cc1ccncc1CNc1ccc2c(c1)Sc1cccc(-c3cc(N4CCOCC4)cc(=O)[nH]3)c1O2 [Example 4-4-19, 6-(8-(((4-Methylpyridin-3-yl)methyl)amino)phenoxathiin-4-yl)-4-morpholino pyridin-2(1H)-one]"
4,100 to 500,"O=c1cc(N2CCOCC2)cc(-c2cccc3c2Sc2ccc(NCc4cccnc4)cc2C3)[nH]1 [Example 3-8-1, 4-Morpholino-6-(7-((pyridin-3-ylmethyl)amino)-9H-thioxanthen-4-yl)pyridin-2(1H)-one]"
5,100 to 500,"COc1ccncc1CN1CCC(Nc2ccc3c(c2)Cc2cccc(-c4cc(N5CCOCC5)cc(=O)[nH]4)c2O3)CC1 [Example 2-28-11, 6-(7-((1-((4-Methoxypyridin-3-yl)methyl)piperidin-4-yl)amino)-9H-xanthen-4-yl)-4-morpholino pyridin-2(1H)-one]"
6,100 to 500,"O=c1cc(N2CCOCC2)cc(-c2cccc3c2Sc2ccc(NCc4ccsc4)cc2S3)[nH]1 [Example 1-12-1, 4-morpholino-6-(7-((thiophen-3-ylmethyl)amino)thianthren-1-yl)pyridin-2(1H)-one]"
7,100 to 500,"CN1CCC(Nc2ccc3c(c2)Sc2cccc(-c4cc(N5CCOCC5)cc(=O)[nH]4)c2O3)CC1 [Example 4-8-2, 6-(8-((1-Methylpiperidin-4-yl)amino)phenoxathiin-4-yl)-4-morpholino pyridin-2(1H)-one]"
8,100 to 500,"Cc1cccc(C(CO)Nc2ccc3c(c2)Cc2cccc(-c4cc(N5CCOCC5)cc(=O)[nH]4)c2O3)n1 (racemic) [Example 2-14-38, 6-(7-((2-Hydroxy-1-(6-methylpyridin-2-yl)ethyl)amino)-9H-xanthen-4-yl)-4-morpholino pyridin-2 (1H)-one]"
9,100 to 500,"CC(Nc1ccc2c(c1)Cc1cccc(-c3cc(N4CCOCC4)cc(=O)[nH]3)c1O2)c1cccs1 (stereo not shown) [Example 2-14-44, 4-Morpholino-6-(7-((1-(thiophen-2-yl)ethyl)amino)-9H-xanthen-4-yl) pyridin-2(1H)-one]"
10,100 to 500,"CC(Nc1ccc2c(c1)Cc1cccc(-c3cc(N4CCOCC4)cc(=O)[nH]3)c1O2)c1ncccn1 (stereo not shown) [Example 2-14-78, 4-Morpholino-6-(7-((1-(pyrimidin-2-yl)ethyl)amino)-9H-xanthen-4-yl) pyridin-2(1H)-one]"
11,100 to 500,"Cn1cc(-c2cncc(CNc3ccc4c(c3)Cc3cccc(-c5cc(N6CCOCC6)cc(=O)[nH]5)c3O4)c2)cn1 [Example 2-2-49, 6-(7-(((5-(1-Methyl-1H-pyrazol-4-yl)pyridin-3-yl)methyl)amino)-9H-xanthen-4-yl)-4-morpholino pyridin-2(1H)-one]"
12,100 to 500,"CCOC(=O)C(C)Nc1ccc2c(c1)Cc1cccc(-c3cc(N4CCOCC4)cc(=O)[nH]3)c1O2 (stereo not shown) [Example 2-14-72, Ethyl 2-((5-(4-morpholino-6-oxo-1,6-dihydropyridin-2-yl)-9H-xanthen-2-yl)amino) propanoate]"
